Assay results published in publication PMC8373216, “Development and Preclinical Evaluation of New Inhaled Lipoglycopeptides for the Treatment of Persistent Pulmonary Methicillin-Resistant Staphylococcus aureus Infections” (Antimicrobial Agents and Chemotherapy, 2021).
Values after ≈ are worked out from the molar mass of the structure shown. Where two headings read alike, the source gives them in different places.

Columns and labels:
[1] = test system: MSSA ATCC 29213; test: In-house broth microdilution MIC screening; format: cell-based; conditions: Staphylococcus aureus, read-out: MIC Value, MSSA ATCC 29213
[2] = test system: S. aureus; test: Expanded panel broth microdilution MIC/MBC; conditions: for MIC: Staphylococcus aureus
[3] = test system: Streptococcus constellatus; test: Expanded panel broth microdilution MIC; format: cell-based
[4] = Single-dose nebulized nose-only inhalation PK in healthy rats; format: in vivo, rat; conditions: single nebulized nose-only inhaled dose, healthy rats
Procedure, shortened: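 Ten or eleven rats per cohort dosed once by nebulized nose-only inhalation, delivered dose estimated from 5 min aerosol filter sampling. Lungs and plasma collected from immediately postdose (~30 min) to 168 h; drug quantified by LC-MS/MS after protein precipitation. PK by noncompartmental analysis, linear up/log down.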

[5] = test system: Enterococcus faecalis; test: Expanded panel broth microdilution MIC/MBC; format: cell-based
[6] = test system: Enterococcus faecium; test: Expanded panel broth microdilution MIC/MBC; format: cell-based; conditions: for MIC: Enterococcus faecium
[7] = test system: Streptococcus pyogenes; test: Expanded panel broth microdilution MIC/MBC; format: cell-based
[8] = test system: MRSA ATCC BAA 1556 (USA300) biofilm; test: Static MRSA biofilm killing, plastic microtiter plate, MEM
[9] = test system: Streptococcus anginosus; test: Expanded panel broth microdilution MIC/MBC; format: cell-based; conditions: for MIC: Streptococcus anginosus

CN[C@H](CC(C)C)C(=O)N[C@H]1C(=O)N[C@@H](CC(N)=O)C(=O)N[C@H]2C(=O)N[C@H]3C(=O)N[C@H](C(=O)N[C@H](C(=O)O)c4cc(O)cc(O)c4-c4cc3ccc4O)[C@H](O)c3ccc(c(Cl)c3)Oc3cc2cc(c3O[C@@H]2O[C@H](CO)[C@@H](O)[C@H](O)[C@H]2O[C@H]2C[C@](C)(N)[C@H](O)[C@H](C)O2)Oc2ccc(cc2Cl)[C@H]1O [Vancomycin, vancomycin]
MIC [1]: 1 µg/mL (≈ 0.69 µM)
MIC:MBC ([2]; S. aureus MRSA, MBC median of n = 5): 1
MIC:MBC ([2]; S. aureus MSSA, MBC on one organism): 1
MIC:MBC ([2]; S. aureus VISA, MBC median of n = 2): 4
MIC (median) ([2]; S. aureus VRSA, 12 isolates (JMI Laboratories)): >64 µg/mL
MIC:MBC ([2]; S. aureus hVISA, MBC on one organism): 1
MIC ([2]; ATCC13709 / MSSA, S. aureus ATCC 13709, MSSA): 1 µg/mL (≈ 0.69 µM)
MIC ([2]; ATCC29213 / MSSA, S. aureus ATCC 29213, MSSA): 1 µg/mL (≈ 0.69 µM)
MIC ([2]; ATCC43300 / MRSA, S. aureus ATCC 43300, MRSA): 1 µg/mL (≈ 0.69 µM)
MIC ([2]; ATCCBAA1556|MRSA|USA300, S. aureus ATCC BAA-1556, MRSA, USA300 (expanded panel)): 0.5 µg/mL (≈ 0.345 µM)
MIC ([2]; ATCCBAA1756|MRSA|NRS384|USA300, S. aureus NRS 384, ATCC BAA-1756, MRSA, USA300): 0.5 µg/mL (≈ 0.345 µM)
MIC ([2]; MRSA / NRS123 / USA400, S. aureus NRS123, MRSA, USA400): 0.5 µg/mL (≈ 0.345 µM)
MIC ([2]; MRSA / NRS725 / USA300, S. aureus NRS725, MRSA, USA300): 0.5 µg/mL (≈ 0.345 µM)
MIC ([2]; MRSA / USA300, S. aureus MMX 3982, MRSA, USA300): 0.5 µg/mL (≈ 0.345 µM)
MIC ([2]; MRSA, S. aureus MMX 7899, MRSA): 0.5 µg/mL (≈ 0.345 µM)
MIC ([2]; MRSA, S. aureus MMX 7900, MRSA): 0.5 µg/mL (≈ 0.345 µM)
MIC ([2]; MRSA, S. aureus MMX 7901, MRSA): 0.5 µg/mL (≈ 0.345 µM)
MIC ([2]; MRSA, S. aureus MMX 7902, MRSA): 0.5 µg/mL (≈ 0.345 µM)
MIC ([2]; MRSA, S. aureus MMX 7903, MRSA): 0.5 µg/mL (≈ 0.345 µM)
MIC ([2]; MRSA, read-out: MIC (median), S. aureus MRSA, 12 isolates): 0.5 µg/mL (≈ 0.345 µM)
MIC ([2]; MSSA, S. aureus MMX 7907, MSSA): 0.5 µg/mL (≈ 0.345 µM)
MIC ([2]; MSSA, S. aureus MMX 7908, MSSA): 0.5 µg/mL (≈ 0.345 µM)
MIC ([2]; MSSA, read-out: MIC (median), S. aureus MSSA, 4 isolates): 0.75 µg/mL (≈ 0.518 µM)
MIC ([2]; NRS1 / VISA, S. aureus NRS1, VISA, Mu50): 4 µg/mL (≈ 2.76 µM)
MIC ([2]; NRS2, S. aureus NRS2, hVISA;Mu3): 1 µg/mL (≈ 0.69 µM)
MIC ([2]; NRS4 / VISA, S. aureus NRS4, VISA): 4 µg/mL (≈ 2.76 µM)
MIC ([2]; NRS13 / VISA, S. aureus NRS13, VISA): 2 µg/mL (≈ 1.38 µM)
MIC ([2]; NRS22 / VISA, S. aureus NRS22, VISA): 4 µg/mL (≈ 2.76 µM)
MIC ([2]; NRS23, S. aureus NRS23, hVISA): 2 µg/mL (≈ 1.38 µM)
MIC ([2]; NRS52 / VISA, S. aureus NRS52, VISA): 1 µg/mL (≈ 0.69 µM)
MIC ([2]; VISA, read-out: MIC (median), S. aureus VISA, 5 isolates): 4 µg/mL (≈ 2.76 µM)
MIC ([2]; VRSA, read-out: MIC (median), S. aureus VRSA, 12 isolates (JMI Laboratories)): > 64 µg/mL
MIC ([2]; read-out: MIC (median), S. aureus hVISA, 2 isolates): 1.5 µg/mL (≈ 1.04 µM)
MIC ([3]; S. constellatus AGS, 1 isolate): 0.25 µg/mL (≈ 0.173 µM)
MIC ([3]; Streptococcus constellatus): 0.25 µg/mL (≈ 0.173 µM)
half-life ([4]; male, Sprague Dawley, rat, in vivo, inhaled or intranasal, noncompartmental analysis, read-out: Lung t1/2 (converted)): 1380 min
Kp ([4]; male, Sprague Dawley, rat, in vivo, inhaled or intranasal, read-out: Lung: Plasma Cmax ratio): 4
Cmax ([4]; male, Sprague Dawley, rat, in vivo, inhaled or intranasal, read-out: Plasma Cmax): 8000 ng/mL
Pulmonary dose ([4]; measured directly in lung tissue): 0.20 mg/kg
Lung AUC0-∞ [4]: 671 µg·h/g
Lung Cmax [4]: 31 µg/g
MIC:MBC ([5]; E. faecalis VSE, MBC on one organism): >8
MIC ([5]; E. faecalis VanA VRE, 1 isolate): 128 µg/mL (≈ 88.3 µM)
MIC ([5]; Enterococcus faecalis): 1 µg/mL (≈ 0.69 µM)
MIC ([5]; Enterococcus faecalis, ATCC29212): 2 µg/mL (≈ 1.38 µM)
MIC ([5]; Enterococcus faecalis, VRE): 128 µg/mL (≈ 88.3 µM)
MIC ([5]; Enterococcus faecalis, read-out: MIC (median)): 1.5 µg/mL (≈ 1.04 µM)
MIC:MBC ([6]; E. faecium VanB VRE): >2
MIC ([6]; E. faecium MMX 4204, VSE): 0.5 µg/mL (≈ 0.345 µM)
MIC ([6]; E. faecium VSE, 1 isolate): 0.5 µg/mL (≈ 0.345 µM)
MIC ([6]; VRE, E. faecium MMX 173, VanB VRE): 64 µg/mL (≈ 44.2 µM)
MIC ([6]; VRE, E. faecium MMX 851, VanA VRE): 128 µg/mL (≈ 88.3 µM)
MIC ([6]; VRE, E. faecium VanA VRE, 1 isolate): 128 µg/mL (≈ 88.3 µM)
MIC ([6]; VRE, E. faecium VanB VRE, 1 isolate): 64 µg/mL (≈ 44.2 µM)
MIC ([7]; S. pyogenes MMX 946, ermR): 0.25 µg/mL (≈ 0.173 µM)
MIC:MBC ([7]; S. pyogenes ermR): 1
MIC ([7]; Streptococcus pyogenes): 0.25 µg/mL (≈ 0.173 µM)
MIC ([7]; Streptococcus pyogenes, ATCC19615): 0.25 µg/mL (≈ 0.173 µM)
MIC ([7]; Streptococcus pyogenes, read-out: MIC (median)): 0.25 µg/mL (≈ 0.173 µM)
Reduction in MRSA biofilm titer ([8]; >20 μg/ml dose): 3 log10 CFU/ml
Reduction in MRSA biofilm titer versus control ([8]; doses 1 to 10 μg/ml): approximately 2 log10 CFU/ml
Concentrations with statistically significant reduction versus control biofilm ([8]; two-way ANOVA, Bonferroni): ≥ 22 µg/mL
MIC:MBC ([9]; S. anginosus AGS): >8
MIC [9]: 0.5 µg/mL (≈ 0.345 µM)
MIC ([9]; ATCC33397): 0.5 µg/mL (≈ 0.345 µM)
